Molecular target: T1, SHP2 protein (Homo sapiens, UniProt Q06124)
T1 sequence (Q06124 1-593): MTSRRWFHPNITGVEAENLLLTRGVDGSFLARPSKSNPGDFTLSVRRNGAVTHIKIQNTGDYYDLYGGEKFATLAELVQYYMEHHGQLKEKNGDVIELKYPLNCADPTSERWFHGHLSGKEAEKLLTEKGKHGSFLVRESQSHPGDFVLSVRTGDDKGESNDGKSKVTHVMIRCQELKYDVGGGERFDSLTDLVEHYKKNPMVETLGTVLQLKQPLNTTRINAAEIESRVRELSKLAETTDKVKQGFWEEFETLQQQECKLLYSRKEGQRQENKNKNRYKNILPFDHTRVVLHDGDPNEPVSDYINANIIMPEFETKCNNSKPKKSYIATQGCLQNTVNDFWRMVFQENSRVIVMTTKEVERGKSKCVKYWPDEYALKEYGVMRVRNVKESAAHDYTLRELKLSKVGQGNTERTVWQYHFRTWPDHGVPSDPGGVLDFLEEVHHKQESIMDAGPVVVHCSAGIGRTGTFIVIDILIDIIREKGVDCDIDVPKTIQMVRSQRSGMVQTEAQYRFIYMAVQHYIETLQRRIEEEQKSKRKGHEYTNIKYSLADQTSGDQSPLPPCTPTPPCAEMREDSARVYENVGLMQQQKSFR
Experiment: Measurement of SHP2 protein degradation in NCI-H358 cells (western blotting)
Format: cell-based
Design: endogenous in cells; host or cells: NCI-H358
Conditions: harvested after 24 hours
Description: H358 cells were treated with the synthesized Example compounds, and the amount of SHP2 protein present in the cells was measured using western blotting detection. The protocol for the experiment using H358 cells is as follows.
[Culture]H358 cells were resuspended in RPMI1640 with 25 mM HEPES (Hyclone, SH30255.01), 10% FBS (Hyclone, SV30207.02), 1% Penicillin-streptomycin (Welgene, LS 202-02) media, seeded at 3×10^5/mL in 12-well plates (1 mL each), and cultured for 24 hours.
[Compound treatment] Before compound treatment, the media was changed to 1 mL media, and then the 12-well plate was treated as follows. The 10 mM stock dissolved in DMSO was serially diluted 1/100 or 1/10 with the media, and the compound was treated to the cells at a final concentration of 0.001, 0.01, and 0.1 μM, and harvested after 24 hours. For the negative control group, DMSO diluted 1/1000 in the media was added (1 μL DMSO+999 μL media).
[Harvest]24 hours after compound treatment, each well was scraped with a cell lifter (SPL, 90040), pipetted with a 1 mL pipette, collected in a 1.5 mL microtube, and centrifuged (500 g, 5 min, 4° C.). The supernatant was removed, washed with PBS, and centrifuged again (500 g, 5 min, 4° C.). Afterwards, the supernatant was removed to prepare a pellet.
[Cell lysis and sample preparation] Lysis buffer was prepared as follows. RIPA buffer (Biosesang, RC2038-050-00)+0.5 mM PMSF (SIGMA, P7626)+1× Protease/Phosphatase Inhibitor (Cell signaling, 5872S) were added at 30 μL per tube, vortexed, and incubated on ice for 30 minutes. Afterwards, sonication was performed (10 sec pulse, 30 sec rest, 5 cycles, 70% amplification) and centrifugation was performed (15,000 g, 15 min, 4° C.), and only the supernatant was transferred to a microtube. A 96-well plate was diluted to 1/4 with 7.5 μL of RIPA buffer and 2.5 μL of sample, and 200 μL each was added after mixing A and B of the BCA Protein Assay Kit (iNtRON, 21071) in a ratio of 50:1. The plate was incubated at 37° C. for 30 minutes and left at room temperature for 10 minutes. After shaking for 10 seconds with a SYNERGY H1 microplate reader from BioTek, the absorbance was measured at 562 nm. The protein was quantified using the measured value to make a sample, which was then incubated at 70° C. for 10 minutes. The sample buffer used here was a mixture of NuPAGE or Bolt 4× sample buffer (Invitrogen) and each 10× sample reducing agent depending on the gel to be used, and RIPA buffer was used for protein dilution.
[Western blotting detection] Equal amounts of samples were loaded onto NuPAGE or Bolt Bis-tris 4-12% gradient gel and run (200 V, 35 min). This was transferred to […] NC membrane using Trans-blot Turbo (BIO-RAD) (1.3 A constant, 25 V limit, 15 min), and blocked with 5% skim milk/0.2% TBST for 45 min at room temperature. Anti-SHPTP2 Mouse (1:1,000 in 5% skim milk/0.2% TBST, size: 70 kDa, Santa cruz sc-7384) and Anti-GAPDH Rabbit (1:2,000 in 5% skim milk or 5% BSA/0.2% TBST, size: 37 kDa, CST #2118) were added and incubated overnight at 4° C. After washing three times with 0.2% TBST washing buffer for 5 minutes each, secondary antibodies Anti-Mouse IgG (1:5,000 in 5% skim milk/0.2% TBST, CST) and IRDye® 680RD Goat anti-Rabbit IgG Secondary Antibody (1:10,000 in 5% skim milk/0.2% TBST, LI-COR 926-68071) were added, and incubated on a rocker at room temperature for 45 minutes. The resultants were washed five times with 0.2% TBST washing buffer for 5 minutes each, and detected using LI-COR's Odyssey. GAPDH was detected with a 700 nm channel, and SHPTP2 was detected using SuperSignal West Pico PLUS Chemiluminescent Substrate.

| Compound | SHP2% degradation (0.01 μM) [%] | SHP2% degradation (0.1 μM) [%] |
| --- | --- | --- |
| CC(=O)N[C@H](C(=O)N1C[C@H](O)C[C@H]1C(=O)NCc1ccc(-c2scnc2C)cc1O[C@H]1CC[C@H](C(=O)N2CC(Nc3nccc(Sc4cnc(N5CCC(C)(N)CC5)cn4)c3Cl)C2)CC1)C(C)(C)C [Example 39, (2S,4R)-1-((S)-2-acetamido-3,3-dimethylbutanoyl)-N-(2-(((1R,4S)-4-(3-((4-((5-(4-amino-4-methylpiperidin-1-yl)pyrazin-2-yl)thio)-3-chloropyridin-2-yl)amino)azetidine-1-carbonyl)cyclohexyl)oxy)-4-(4-methylthiazol-5-yl)benzyl)-4-hydroxypyrrolidine-2-carboxamide] | 83.6 | 98.1 |
| CC(=O)N[C@H](C(=O)N1C[C@H](O)C[C@H]1C(=O)NCc1ccc(-c2scnc2C)cc1O[C@H]1CC[C@H](C(=O)N2CC(Nc3nccc(Sc4cnc(N5CCC6(CC5)CO[C@@H](C)[C@H]6N)cn4)c3Cl)C2)CC1)C(C)(C)C [Example 40, (2S,4R)-1-((S)-2-acetamido-3,3-dimethylbutanoyl)-N-(2-(((1R,4S)-4-(3-((4-((5-((3S,4S)-4-amino-3-methyl-2-oxa-8-azaspiro[4.5]decan-8-yl)pyrazin-2-yl)thio)-3-chloropyridin-2-yl)amino)azetidine-1-carbonyl)cyclohexyl)oxy)-4-(4-methylthiazol-5-yl)benzyl)-4-hydroxypyrrolidine-2-carboxamide] | 94.2 | 95.9 |
| CC(=O)N[C@H](C(=O)N1C[C@H](O)C[C@H]1C(=O)NCc1ccc(-c2scnc2C)cc1O[C@H]1CC[C@H](C(=O)N2CCC(Nc3nccc(Sc4cnc(N5CCC6(CC5)CO[C@@H](C)[C@H]6N)cn4)c3Cl)CC2)CC1)C(C)(C)C [Example 43, (2S,4R)-1-((S)-2-acetamido-3,3-dimethylbutanoyl)-N-(2-(((1R,4S)-4-(4-((4-((5-((3S,4S)-4-amino-3-methyl-2-oxa-8-azaspiro[4.5]decan-8-yl)pyrazin-2-yl)thio)-3-chloropyridin-2-yl)amino)piperidine-1-carbonyl)cyclohexyl)oxy)-4-(4-methylthiazol-5-yl)benzyl)-4-hydroxypyrrolidine-2-carboxamide] | 94.3 | 95.9 |
| CC(=O)N[C@H](C(=O)N1C[C@H](O)C[C@H]1C(=O)NCc1ccc(-c2scnc2C)cc1O[C@H]1CC[C@H](C(=O)N2CC(Nc3nccc(Sc4cnc(N5CCC(C)(CN)CC5)c(CO)n4)c3Cl)C2)CC1)C(C)(C)C [Example 44, (2S,4R)-1-((S)-2-acetamido-3,3-dimethylbutanoyl)-N-(2-(((1r,4S)-4-(3-((4-((5-(4-(aminomethyl)-4-methylpiperidin-1-yl)-6-(hydroxymethyl)pyrazin-2-yl)thio)-3-chloropyridin-2-yl)amino)azetidine-1-carbonyl)cyclohexyl)oxy)-4-(4-methylthiazol-5-yl)benzyl)-4-hydroxypyrrolidine-2-carboxamide] | 88.5 | 99.1 |

Continued, values first:

| SHP2% degradation (0.01 μM) [%] | SHP2% degradation (0.1 μM) [%] | Compound |
| --- | --- | --- |
| −36.9 | 73.0 | CC(=O)N[C@H](C(=O)N1C[C@H](O)C[C@H]1C(=O)NCc1ccc(-c2scnc2C)cc1O[C@H]1CC[C@H](C(=O)N2CC(N3CCOc4c(Sc5cnc(N6CCC(C)(CN)CC6)cn5)cccc43)C2)CC1)C(C)(C)C [Example 34, (2S,4R)-1-((S)-2-acetamido-3,3-dimethylbutanoyl)-N-(2-(((1R,4S)-4-(3-(8-((5-(4-(aminomethyl)-4-methylpiperidin-1-yl)pyrazin-2-yl)thio)-2,3-dihydro-4H-benzo[b][1,4]oxazin-4-yl)azetidine-1-carbonyl)cyclohexyl)oxy)-4-(4-methylthiazol-5-yl)benzyl)-4-hydroxypyrrolidine-2-carboxamide] |
| 66.8 | 97.7 | CC(=O)N[C@H](C(=O)N1C[C@H](O)C[C@H]1C(=O)NCc1ccc(-c2scnc2C)cc1O[C@H]1CC[C@H](C(=O)N2CCC(N3CCOc4c(Sc5cnc(N6CCC(C)(CN)CC6)cn5)cccc43)CC2)CC1)C(C)(C)C [Example 35, (2S,4R)-1-((S)-2-acetamido-3,3-dimethylbutanoyl)-N-(2-(((1r,4S)-4-(4-(8-((5-(4-(aminomethyl)-4-methylpiperidin-1-yl)pyrazin-2-yl)thio)-2,3-dihydro-4H-benzo[b][1,4]oxazin-4-yl)piperidine-1-carbonyl)cyclohexyl)oxy)-4-(4-methylthiazol-5-yl)benzyl)-4-hydroxypyrrolidine-2-carboxamide] |
| 91.0 | 100.0 | CC(=O)N[C@H](C(=O)N1C[C@H](O)C[C@H]1C(=O)NCc1ccc(-c2scnc2C)cc1O[C@H]1CC[C@H](C(=O)N2CCC(N3CCOc4c(Sc5cnc(N6CCC7(CC6)CO[C@@H](C)[C@H]7N)cn5)cccc43)CC2)CC1)C(C)(C)C [Example 36, (2S,4R)-1-((S)-2-acetamido-3,3-dimethylbutanoyl)-N-(2-(((1R,4S)-4-(4-(8-((5-((3S,4S)-4-amino-3-methyl-2-oxa-8-azaspiro[4.5]decan-8-yl)pyrazin-2-yl)thio)-2H-benzo[b][1,4]oxazin-4(3H)-yl)piperidine-1-carbonyl)cyclohexyl)oxy)-4-(4-methylthiazol-5-yl)benzyl)-4-hydroxypyrrolidine-2-carboxamide] |
| 75.8 | 99. | CC(=O)N[C@H](C(=O)N1C[C@H](O)C[C@H]1C(=O)NCc1ccc(-c2scnc2C)cc1O[C@H]1CC[C@H](C(=O)N2CCC(n3cc(F)c4c(Sc5cnc(N6CCC(C)(CN)CC6)cn5)cccc43)CC2)CC1)C(C)(C)C [Example 37, (2S,4R)-1-((S)-2-acetamido-3,3-dimethylbutanoyl)-N-(2-(((1r,4S)-4-(4-(4-((5-(4-(aminomethyl)-4-methylpiperidin-1-yl)pyrazin-2-yl)thio)-3-fluoro-1H-indol-1-yl)piperidine-1-carbonyl)cyclohexyl)oxy)-4-(4-methylthiazol-5-yl)benzyl)-4-hydroxypyrrolidine-2-carboxamide] |
| 95.2 | 98.7 | CC(=O)N[C@H](C(=O)N1C[C@H](O)C[C@H]1C(=O)NCc1ccc(-c2scnc2C)cc1O[C@H]1CC[C@H](C(=O)N2CCC(Nc3nccc(Sc4cnc(N5CCC(C)(N)CC5)cn4)c3Cl)CC2)CC1)C(C)(C)C [Example 42, (2S,4R)-1-((S)-2-acetamido-3,3-dimethylbutanoyl)-N-(2-(((1R,4S)-4-(4-((4-((5-(4-amino-4-methylpiperidin-1-yl)pyrazin-2-yl)thio)-3-chloropyridin-2-yl)amino)piperidine-1-carbonyl)cyclohexyl)oxy)-4-(4-methylthiazol-5-yl)benzyl)-4-hydroxypyrrolidine-2-carboxamide] |

From US20260144788A1, “COMPOUND FOR SHP2 PROTEIN DEGRADATION AND MEDICAL USES THEREOF” (UBIX THERAPEUTICS, INC., priority 2022, published 2026)
